In assay [1] the test system is activated hepatic stellate cells. The settings on record: Lim et al. 2011; cited from earlier work.
Assay [2] deals with diabetes-associated myocardial fibrosis. The settings on record: Rajesh et al. 2010; cited from earlier work.
Assay [3] concerns Il13, IL1β, IL6, CCL2, TGFβ and IL4. The experiment in a line: Real-time quantitative PCR of inflammatory and fibrotic cytokines in skin of BLM mice. The format is in vivo. Particulars: mRNA, 2^-ΔΔCt, Figure 11. The protocol:
Total RNA was isolated from mice frozen skin tissue using QIAzol lysis reagent (Qiagen, Hilden, Germany) and purified with RNeasy mini kit (Qiagen). Total RNA (1 µg) was retrotranscribed using the iScript™ cDNA Synthesis Kit (Bio-Rad), and the cDNA generated was analysed by real-time PCR using the iQTM SYBR Green Supermix (Bio-Rad) using a CFX96 Real-Time PCR Detection System (Bio-Rad). […] The GAPDH housekeeping gene was used to standardize the mRNA expression levels in every sample. Expression levels were calculated using the 2^-ΔΔCt method. Gene expression were normalized to GADPH mRNA levels in each sample and expressed using the 2^-ΔΔCt method. Table 1. List of mouse primer sequences used in quantitative Polymerase Chain Reaction

The test system of assay [4] is NHDFs. As to the kind of experiment: Fibroblast migration scratch (wound healing) assay in NHDFs. The settings on record: Figure 6. The format is cell-based, human. The protocol:
Migration of skin fibroblast plays a crucial role not only in normal wound healing but also in fibrotic diseases. To further analyze this point, it was tested if the anti-fibrotic effect of (-)CBD could be associated with reduced fibroblast migration. To investigate this possibility, the effect of (-)CBD on TGFβ-induced wound healing was investigated. NHDFs (2x10^3 cells) were seeded in complete DMEM in a 96-well Essen ImageLock plates (Essen BioScience). When cells reached confluence, wound scratches were made using the 96-pin WoundMaker (Essen BioScience). Then, culture medium was replaced by DMEM supplemented with 1% antibiotics and with mitomycin C (10 ng/ml) to block cell proliferation. (-)CBD and TGFβ1 10 ng/ml were added in parallel. Wound healing activity was analyzed using IncuCyte HD system by taking images every 3 h for 48 h and the percentage of wound confluence calculated with the IncuCyte software.

Assay [5] relates to CB1. Particulars: Bisogno et al. 2001; cited from earlier work.
For assay [6], the target named is CB2 (Homo sapiens, UniProt P34972). The settings on record: Bisogno et al. 2001; cited from earlier work.
The test system of assay [7] is mouse seizure model. The settings on record: Leite et al. 1982; cited from earlier work.

SMILES strings stand for the structures.

CB2, sequence (P34972 whole entry, species assumed): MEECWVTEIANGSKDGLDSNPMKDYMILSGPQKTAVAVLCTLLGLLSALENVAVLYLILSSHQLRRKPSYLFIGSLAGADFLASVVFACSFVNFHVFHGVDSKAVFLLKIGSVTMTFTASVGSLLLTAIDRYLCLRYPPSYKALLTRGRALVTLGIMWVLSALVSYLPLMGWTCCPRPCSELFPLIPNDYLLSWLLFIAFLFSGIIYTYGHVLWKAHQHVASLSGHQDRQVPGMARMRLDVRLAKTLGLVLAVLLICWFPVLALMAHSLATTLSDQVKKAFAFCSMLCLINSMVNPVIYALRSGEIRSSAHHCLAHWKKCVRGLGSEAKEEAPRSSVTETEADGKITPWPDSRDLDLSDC

`C=C(C)[C@@H]1CCC(C)=C[C@H]1c1c(O)cc(CCCCC)cc1O` [(-)CBD, 2-[(1R,6R)-3-methyl-6-prop-1-en-2-ylcyclohex-2-en-1-yl]-5-pentylbenzene-1,3-diol]: the “cell death of activated hepatic stellate cells” value in assay [1] is “induces cell death”. The diabetes-associated myocardial fibrosis result in assay [2] is listed as “attenuates”. Also, in assay [3], the “expression levels of CCL2 in the skin” value is on record as “significantly reduced”, the “expression levels of IL1β in the skin” value is on record as “significantly reduced”, the “expression levels of IL4 in the skin” value is on record as “significantly reduced” and the “expression levels of IL6 in the skin” value is “significantly reduced”. Moreover, in assay [3], the “expression levels of Il13 in the skin” value was “significantly reduced” and the “expression levels of TGFβ in the skin” value was “significantly reduced”. Also, in assay [4] (TGFβ1 10 ng/ml, 48 h, concentration-dependent), the “wound closure induced by TGFβ1” value is “significantly attenuated”. For the same molecule, the “wound closure induced by rhIL-4” value in assay [4] (rhIL-4, concentration-dependent) is “significantly attenuated”.

As to `C=C(C)[C@H]1CCC(C)=C[C@@H]1c1c(O)cc(CCCCC)cc1O` [(+)CBD, (+)Cannabidiol], in assay [5], the “affinity at CB1 receptors” value is reported as “has been shown to have affinity”. For the same molecule, the “affinity at CB2 receptors” value in assay [6] is “has been shown to have affinity”. The anticonvulsant activity entry in assay [7] is reported as “more active than the (-)CBD isomer”.

Values taken from patent publication EP3643303A1, “COMPOUNDS FOR USE IN THE TREATMENT OR PREVENTION OF FIBROTIC DISEASES; PHARMACEUTICAL, COSMETIC COMPOSITIONS AND USES THEREOF” (InnovativeHealth Group SL, priority 2018, dated 2020).
